Laboratory results published in patent US8580752B2, “Aromatic amides as potentiators of bioefficacy of anti-infective drugs” (priority 2005, dated 2013).
In brackets after ≈: the same amount, converted by molar mass. Where two headings read alike, the source gives them in different places.

What was measured:
[1] = test system: M. tb; assay: MIC of anti infective drugs alone and with potentiators; format: cell-based, Mycobacterium tuberculosis; settings: for MIC Drug + potentiator: Ciprofloxacin + potentiator; for % decrease in MIC: Ciprofloxacin + potentiator vs drug alone; for MIC: Mycobacterium tuberculosis, drug alone
[2] = test system: Gm −ve bacteria; assay: microbe, parasite or virus in culture; format: cell-based, Gram negative; settings: for MIC: read-out: MIC Drug alone
[3] = test system: Gm +ve bacteria; assay: microbe, parasite or virus in culture; format: cell-based, Gram positive; settings: for MIC: drug alone, Gm +ve bacteria
[4] = test system: M. tuberculosis 615; assay: MIC by checkerboard method; format: cell-based, Mycobacterium tuberculosis
Experimental: (§1) This checkerboard technique can be performed with liquid or semisolid (agar) media.
(§2) In this method the agar (Mueller Hinton agar, Middlebrook 7H10 agar) was autoclaved and allowed to cool to 55° C. to 50° C. The combination of the standard drug and the potentiator was added to the agar. Serial two fold dilutions of each of standard drug and the potentiator were prepared in appropriate solvents. In order to maintain the desired concentrations of both agar and drugs, and to rule out the effect of solvent, the volume of solvent (containing standard drug or potentiator) added to agar was kept small (i.e ≦5% of the total volume). After the agar plates have been poured and allowed to dry, the bacteria to be tested were applied to the surface of agar with a replicating device designed to deliver a standard inoculum (approx 10^4 cfu|spot). The plates were incubated at 37° C. for 24 hrs (3 weeks in case of Mycobacterium tuberculosis)
(§3) The above-mentioned checkerboard was also performed with liquid media in a microtiter plate format. This method was used to study the combination of antibacterial/antifungal/antiviral drugs with potentiator.

[5] = test system: M. tuberculosis 611; assay: MIC by checkerboard method; format: cell-based, Mycobacterium tuberculosis
Experimental: as §1, §2, §3

[6] = test system: M. avium ATCC 49601; assay: MIC by checkerboard method; format: cell-based
[7] = test system: M. intracellure ATCC 13950; assay: MIC by checkerboard method; format: cell-based
[8] = test system: M. tuberculosis H37Rv; assay: MIC by checkerboard method; format: cell-based, Mycobacterium tuberculosis; settings: for MIC: Mycobacterium tuberculosis, Rifampicin alone
[9] = test system: MRSA 33; assay: MIC by checkerboard method; format: cell-based; settings: Staphylococcus aureus, S aureus MRSA 33
[10] = test system: MRSA; assay: MIC by checkerboard method, comparison with piperine; format: cell-based, Staphylococcus aureus; settings: Tables 5A/5B; for MIC: Staphylococcus aureus
[11] = test system: MRSA 450; assay: MIC by checkerboard method; format: cell-based; settings: Staphylococcus aureus, S aureus MRSA 450
[12] = test system: S aureus ATCC 29213; assay: MIC by checkerboard method; format: cell-based, Staphylococcus aureus; settings: for MIC: Staphylococcus aureus; for MIC Amikacin / MIC Ciprofloxacin: Tables 5A/5B
[13] = test system: S epidermidis ATCC 12228; assay: MIC by checkerboard method; format: cell-based
[14] = test system: B cereus RRL 101; assay: MIC by checkerboard method; format: cell-based
[15] = test system: Staphylococcus aureus ATCC 29213; assay: Systemic infection model of mice; format: in vivo, Swiss albino mice; settings: ATCC29213, iv, read-out: ED50 for ciprofloxacin
Experimental: The study was conducted to see the in vivo response of ciprofloxacin in combination with the above-mentioned potentiator. The Swiss albino mice were infected intravenously with Staphylococcus aureus ATCC 29213 (10^7 CFU/mouse). The infected mice were divided in groups and each group consisted of 6 mice. The treatment consisted of one dose i.e. 5 or 10 or 20 mg/kg immediately after the infection followed by the next dose after a gap of 6 hrs. The result was recorded as number of survivals each day.

[16] = with compound of formula 1a 0.09 μg/ml
[17] = with compound of formula 1a 0.78 μg/ml
[18] = with compound of formula 1a 6.25 μg/ml
[19] = with compound of formula 1a 50.0 μg/ml
[20] = Amikacin alone, read-out: MIC of Amikacin
[21] = Ciprofloxacin alone, read-out: MIC Ciprofloxacin
[22] = with the labelled potentiator +6.25 μg/ml
[23] = with the labelled potentiator +12.5 μg/ml
[24] = with the labelled potentiator +25.0 μg/ml
[25] = with the labelled potentiator +50.0 μg/ml
[26] = Mycobacterium tuberculosis, Rifampicin alone

## CCC(/C=C/C(=O)N1CCCCC1)=C\c1ccc(OC)c(OC)c1 [4-ethyl-5-(3,4-dimethoxyphenyl)-2E,4E-pentadienoic acid piperidide]
[1]
  MIC Drug + potentiator: 0.25 to 0.5 µg/mL
  % decrease in MIC: 50%
[2]
  % decrease in MIC: 0-50%
  MIC Drug + potentiator: 0.03 to 0.25 µg/mL
[3]
  % decrease in MIC: 50-76%
  MIC Drug + potentiator: 0.06 to 8 µg/mL

## CCC(/C=C/C(=O)N1CCCCC1)=C\c1cc2c(c([N+](=O)[O-])c1)OCO2 [5-(3,4-methylenedioxy-5-nitrophenyl)-4-ethyl-2E,4E-pentadienoic acid piperidide]
[3]
  % decrease in MIC: 0-50%
  MIC Drug + potentiator: 0.03 to 0.25 µg/mL

## CCC(/C=C/C(=O)N1CCCC1)=C\c1ccc2c(c1)OCO2 [5-(3,4-methylenedioxyphenyl)-4-ethyl-2E,4E-pentadienoic acid pyrrolidide]
[4]; [16]
  MIC of Rifampicin: 0.03 µg/mL
[4]; [17]
  MIC of Rifampicin: 0.03 µg/mL
[4]; [18]
  MIC of Rifampicin: 0.03 µg/mL
[4]; [19]
  MIC of Rifampicin: 0.03 µg/mL
[5]; [16]
  MIC of Rifampicin: 0.03 µg/mL
[5]; [17]
  MIC of Rifampicin: 0.03 µg/mL
[5]; [18]
  MIC of Rifampicin: 0.03 µg/mL
[5]; [19]
  MIC of Rifampicin: 0.03 µg/mL
[6]; [16]
  MIC of Rifampicin: 2.0 µg/mL
[6]; [17]
  MIC of Rifampicin: 2.0 µg/mL
[6]; [18]
  MIC of Rifampicin: 1.0 µg/mL
[6]; [19]
  MIC of Rifampicin: 1.0 µg/mL
[7]; [16]
  MIC of Rifampicin: 2.0 µg/mL
[7]; [17]
  MIC of Rifampicin: 1.0 µg/mL
[7]; [18]
  MIC of Rifampicin: 1.0 µg/mL
[7]; [19]
  MIC of Rifampicin: 1.0 µg/mL
[8]; with compound of formula 1a 0.09 μg/ml, M. tuberculosis H37Rv
  MIC of Rifampicin: 0.03 µg/mL
[8]; with compound of formula 1a 0.78 μg/ml, M. tuberculosis H37Rv
  MIC of Rifampicin: 0.03 µg/mL
[8]; with compound of formula 1a 6.25 μg/ml, M. tuberculosis H37Rv
  MIC of Rifampicin: 0.03 µg/mL
[8]; with compound of formula 1a 50.0 μg/ml, M. tuberculosis H37Rv
  MIC of Rifampicin: 0.03 µg/mL

## CCC(/C=C/C(=O)N1CCC(O)CC1)=C\c1ccc2c(c1)OCO2 [5-(3,4-methylenedioxyphenyl)-4-ethyl-2E,4E-pentadienoic acid-4-hydroxypiperidide]
[3]
  % decrease in MIC: 0-50%
  MIC Drug + potentiator: 0.03 to 0.25 µg/mL

## CCC(CCC(=O)N1CCCCC1)Cc1ccc2c(c1)OCO2 (stereo not shown) [5-(3,4-methylenedioxyphenyl)-4-ethyl-pentanoic acid piperidide]
[3]
  % decrease in MIC: 0-50%
  MIC Drug + potentiator: 0.03 to 0.25 µg/mL

## CC(/C=C/C(=O)NC(C)c1ccc(Br)cc1)=C\c1ccc2c(c1)OCO2 (stereo not shown) [5-(3,4-methylenedioxyphenyl)-4-methyl-2E,4E-pentadienoic acid-1-(4-bromophenyl)ethylamide]
[1]
  MIC Drug + potentiator: 0.25 to 0.5 µg/mL
  % decrease in MIC: 50%
[2]
  % decrease in MIC: 0-50%
  MIC Drug + potentiator: 0.03 to 0.25 µg/mL
[3]
  % decrease in MIC: 50-76%
  MIC Drug + potentiator: 0.06 to 8 µg/mL

## CC(/C=C/C(=O)N1CCN(C)CC1)=C\c1ccc2c(c1)OCO2 [5-(3,4-methylenedioxyphenyl)-4-methyl-2E,4E-pentadienoic acid-N-methylpiperazide]
[3]
  % decrease in MIC: 50-76%
  MIC Drug + potentiator: 0.06 to 0.12 µg/mL

## CCCCC(/C=C/C(=O)N1CCCCC1)=C\c1ccc2c(c1)OCO2 [5-(3,4-methylenedioxyphenyl)-4-n-butyl-2E,4E-pentadienoic acid piperidide]
[1]
  MIC Drug + potentiator: 0.25 to 0.5 µg/mL
  % decrease in MIC: 50%
[2]
  % decrease in MIC: 0-50%
  MIC Drug + potentiator: 0.03 to 0.25 µg/mL
[3]
  % decrease in MIC: 50-76%
  MIC Drug + potentiator: 0.06 to 8 µg/mL

## NCC[C@H](O)C(=O)N[C@@H]1C[C@H](N)[C@@H](O[C@H]2O[C@H](CN)[C@@H](O)[C@H](O)[C@H]2O)[C@H](O)[C@H]1O[C@H]1O[C@H](CO)[C@@H](O)[C@H](N)[C@H]1O [Amikacin, reference compound]
[9]; [20]
  MIC: 8 µg/mL
[10]; Amikacin alone, read-out: MIC Amikacin
  MIC: 4 µg/mL
[11]; [20]
  MIC: 16 µg/mL
[12]; ATCC29213, Amikacin alone, read-out: MIC of Amikacin
  MIC: 2 µg/mL
[12]; ATCC29213, Tables 5A/5B, Amikacin alone, read-out: MIC Amikacin
  MIC: 2 µg/mL
[13]; [20]
  MIC: 1 µg/mL
[14]; [20]
  MIC: 1 µg/mL

## O=C(O)c1cn(C2CC2)c2cc(N3CCNCC3)c(F)cc2c1=O [Ciprofloxacin, reference compound]
[9]; [21]
  MIC: 32 µg/mL
[15]
  ED50: 9.2 mg/kg
[10]; [21]
  MIC: 32 µg/mL
[11]; [21]
  MIC: 32 µg/mL
[1]
  MIC: 0.5 to 1 µg/mL
[2]
  MIC: 0.03 to 0.5 µg/mL (≈ 0.0905 to 1.51 µM)
[12]; ATCC29213, Ciprofloxacin alone, read-out: MIC Ciprofloxacin
  MIC: 0.25 µg/mL
[12]; ATCC29213, Tables 5A/5B, Ciprofloxacin alone, read-out: MIC Ciprofloxacin
  MIC: 0.25 µg/mL
[13]; [21]
  MIC: 0.12 µg/mL
[14]; [21]
  MIC: 0.12 µg/mL

## CCN(CC)C(=O)/C=C/C(C)=C/c1ccc2c(c1)OCO2 [Formula 1a, R = CH3, do, R5 = R6 = C2H5, 5-(3,4-methylenedioxyphenyl)-4-methyl-2E,4E-pentadienoic acid-N,N-diethylamide]
[3]
  % decrease in MIC: 50-76%
  MIC Drug + potentiator: 0.06 to 0.12 µg/mL

## CCn1cc(C(=O)O)c(=O)c2cc(F)c(N3CCNCC3)cc21 [Norfloxacin, reference compound]
[2]; drug alone, Gm −ve bacteria
  MIC Drug alone: 0.03 to 64 µg/mL
[3]
  MIC: 0.12 to 32 µg/mL (≈ 0.376 to 100 µM)

## CC1COc2c(N3CCN(C)CC3)c(F)cc3c(=O)c(C(=O)O)cn1c23 (stereo not shown) [Ofloxacin, reference compound]
[1]
  MIC: 0.5 to 2.5 µg/mL
[2]; drug alone, Gm −ve bacteria
  MIC: 0.06 to 32 µg/mL (≈ 0.166 to 88.6 µM)
[3]
  MIC: 12 to 32 µg/mL (≈ 33.2 to 88.6 µM)

## O=C(/C=C/C=C/c1ccc2c(c1)OCO2)N1CCCCC1 [Piperine, reference compound]
[10]; with the labelled potentiator +6.25 μg/ml, read-out: MIC Mupirocin
  MIC: 0.12 µg/mL
[10]; with the labelled potentiator +12.5 μg/ml, read-out: MIC Mupirocin
  MIC: 0.12 µg/mL
[10]; with the labelled potentiator +25.0 μg/ml, read-out: MIC Mupirocin
  MIC: 0.06 µg/mL
[10]; with the labelled potentiator +50.0 μg/ml, read-out: MIC Mupirocin
  MIC: 0.06 µg/mL
[10]; [22]
  MIC Amikacin: 4.0 µg/mL
  MIC Ciprofloxacin: 32 µg/mL
[10]; [23]
  MIC Amikacin: 4.0 µg/mL
  MIC Ciprofloxacin: 32 µg/mL
[10]; [24]
  MIC Amikacin: 4.0 µg/mL
  MIC Ciprofloxacin: 32 µg/mL
[10]; [25]
  MIC Amikacin: 4.0 µg/mL
  MIC Ciprofloxacin: 16 µg/mL
[12]; ATCC29213, Tables 5A/5B, with the labelled potentiator +6.25 μg/ml, read-out: MIC Mupirocin
  MIC: 0.12 µg/mL
[12]; ATCC29213, Tables 5A/5B, with the labelled potentiator +12.5 μg/ml, read-out: MIC Mupirocin
  MIC: 0.12 µg/mL
[12]; ATCC29213, Tables 5A/5B, with the labelled potentiator +25.0 μg/ml, read-out: MIC Mupirocin
  MIC: 0.06 µg/mL
[12]; ATCC29213, Tables 5A/5B, with the labelled potentiator +50.0 μg/ml, read-out: MIC Mupirocin
  MIC: 0.06 µg/mL
[12]; [22]
  MIC Amikacin: 2.0 µg/mL
  MIC Ciprofloxacin: 0.25 µg/mL
[12]; [23]
  MIC Amikacin: 1.0 µg/mL
  MIC Ciprofloxacin: 0.25 µg/mL
[12]; [24]
  MIC Amikacin: 0.5 µg/mL
  MIC Ciprofloxacin: 0.12 µg/mL
[12]; [25]
  MIC Amikacin: 0.25 µg/mL
  MIC Ciprofloxacin: 0.12 µg/mL
[8]; Tables 5A/5B, with the labelled potentiator +6.25 μg/ml, M tuberculosis H37Rv
  MIC Rifampicin: 0.12 µg/mL
[8]; Tables 5A/5B, with the labelled potentiator +12.5 μg/ml, M tuberculosis H37Rv
  MIC Rifampicin: 0.06 µg/mL
[8]; Tables 5A/5B, with the labelled potentiator +25.0 μg/ml, M tuberculosis H37Rv
  MIC Rifampicin: 0.06 µg/mL

## CO[C@H]1/C=C/O[C@@]2(C)Oc3c(C)c(O)c4c(O)c(c(/C=N/N5CCN(C)CC5)c(O)c4c3C2=O)NC(=O)/C(C)=C\C=C\[C@H](C)[C@H](O)[C@@H](C)[C@@H](O)[C@@H](C)[C@H](OC(C)=O)[C@@H]1C [Rifampicin, reference compound]
[4]; [26]
  MIC: 0.06 µg/mL
[5]; [26]
  MIC: 0.06 µg/mL
[6]; Mycobacterium avium, ATCC49601, Rifampicin alone
  MIC: 2 µg/mL
[7]; Rifampicin alone
  MIC: 2 µg/mL
[8]; M. tuberculosis H37Rv, read-out: MIC of Rifampicin
  MIC: 0.12 µg/mL
[8]; Tables 5A/5B, M tuberculosis H37Rv, read-out: MIC Rifampicin
  MIC: 0.12 µg/mL
